In article PMC13224100, “Esterase-Responsive Mitochondria-Targeted Hydropersulfide Donors Mitigate Doxorubicin Cardiotoxicity While Preserving Anticancer Activity” (Angewandte Chemie (International ed. in English), 2025):

Assays:
Format in all cases: cell-based
MCF-7 cells = assay: Effect of RSSH donors on anticancer activity of DOX, CCK-8; settings: 4 h pretreatment, then 24 h co-treatment with DOX 15 μM
Protocol: (§1) We next evaluated the effects of RSSH donors on DOX activity in three representative cancer cell lines: triple-negative breast cancer MDA-MB-468, ER-positive breast cancer MCF-7, and hepatocellular carcinoma HepG2.
(§2) Figure 5. Effect of RSSH donors on anticancer activity of DOX in cancer cells. MDA-MB-468, MCF-7, and HepG2 cells were pretreated with APT-1 or its mitochondria-targeted analog APT-1-TPP for 4 h, followed by co-treatment with DOX (5 μM for MDA-MB-468 and HepG2; 15 μM for MCF-7) for an additional 24 h. Results are presented as mean ± SEM, n = 3; *p < 0.05, **p < 0.01, ***p < 0.001, ****p < 0.0001. Ctl = vehicle-treated group (0.01% DMSO in medium). […]
(§3) Cytoprotective Effects of RSSH Donors against Doxorubicin Toxicity
(§4) Cytoprotective studies were performed as previously described.[8] Briefly, H9c2 cells, HepG2 cells, MDA-MB-468 cells, and MCF-7 cells were seeded at a density of 7 x 10^3 cells/well. […] Additionally, in the vehicle control group, cells were treated with medium (DMEM with 10% FBS) containing 0.01% DMSO only. The cells were then further incubated for an additional 4 h before being treated with DOX (10 μL/well, with final concentration of 5 μM). After a 24 h co-incubation with DOX, each well was carefully washed three times with PBS (pH 7.4) and 100 μL o f F B S-free medium containing 10% v/v CCK-8 (Dojindo) was added. The plates were then incubated for 1-2 h before measuring absorbance at […]
(§5) The relative % cell viability was calculated as 100 times the ratio of Abs450 (RSSH donor + DOX-exposed) to Abs450 (vehicle, non-DOX-exposed). Each treatment condition was performed in 6 technical replicates per biological replicate, and the experiment was independently repeated three times (n = 3 biological replicates). Data are presented as mean ± SEM. […]

HepG2 cells [1] = assay: as above; settings: 4 h pretreatment, then 24 h co-treatment with DOX 5 μM
Protocol: as §1, §2, §3, §4, §5

MDA-MB-468 cells = assay: as above; settings: 4 h pretreatment, then 24 h co-treatment with DOX 5 μM
Protocol: as §1, §2, §3, §4, §5

HepG2 cells [2] = assay: Mitochondrial membrane potential (TMRM) under DOX; settings: donor 25 μM, 4 h pretreatment, DOX 5 μM 24 h
Protocol: (§6) Figure 6. a) Basal sulfane sulfur (SS) levels in H9c2 cardiomyocyte, MDA-MB-468, MCF-7, and HepG2 cell lines as detected by SSP4 fluorescence. b) Representative images and c) basal levels of mitochondrial membrane potential (MMP) in H9c2 and cancer cells (MDA-MB-468, MCF-7, and HepG2). d) Impact of APT-1 (25 μM) or APT-1-TPP (25 μM) on MMP in DOX (5 μM)-treated (d) H9c2 and e) HepG2 cells. Impact of APT-1 (25 μM) and APT-1-TPP (25 μM) on ATP levels in DOX (5 μM)-treated f) H9c2 and g) HepG2 cells. Results are expressed as mean ± SEM, n = 3–6; *P < 0.05, **P < 0.01, ***P < 0.001, ****P < 0.0001. Significances in (a) and (c) are presented with respect to H9c2 cells.
(§7) We then examined how RSSH donors influence MMP during DOX exposure. As expected, DOX alone induced mitochondrial depolarization in H9c2 cells, reducing MMP to ca. 50% of control (Figure 6d). […] To complement these observations, we quantified intracellular ATP levels as a functional readout of mitochondrial activity. […]
(§8) Mitochondrial Membrane Potential Measurements
(§9) Mitochondrial membrane potential was measured using Image-iT™ TMRM Reagent (Cat#I34361, Invitrogen, USA) according to the manufacturer's protocols. […]
(§10) The cells were incubated for an additional 24 h. After completion of treatment, cells were washed with a warm clear DMEM medium (with 10% FBS) and incubated in culture media containing TMRM (working solution 100 nM) for 30 min at 37 °C. Cells were then washed with a warm clear FBS-free DMEM medium (3 times) before imaging. Images were obtained with Zeiss LSM 800 with AiryScan Confocal (λex = 548 nm, λem = 573 nm). During each experiment, 6 field images were obtained for each experimental group. Images were analyzed using Image J software, and all cells in each image were selected for fluorescence intensity measurement (cell-free space was also measured as blank). H9c2 signal intensity was set to 100% and signal intensity for all the other cell lines was shown as a percentage of that of H9c2.
(§11) The experiments were independently repeated three times (n = 3 biological replicates). Data are […]
(§12) Figure S24. Representative TMRM images for mitochondrial membrane potential (MMP) in H9c2 and HepG2 cells with APT-1 and APT-1-TPP treatment under DOX stress. Ctl = vehicle (medium with 0.01% […]
(§13) (1 picture or pasted object on this page, not shown here)

H9c2 cells = assay: Mitochondrial membrane potential (TMRM) under DOX; settings: donor 25 μM, 4 h pretreatment, DOX 5 μM 24 h
Protocol: as §6, §7, §8, §9, §10, §11, §12, §13

| SMILES | effect on DOX cytotoxicity (MCF-7 cells) | effect on DOX cytotoxicity (HepG2 cells [1]) | concentration that modestly enhanced DOX's anticancer activity (MDA-MB-468 cells) [µM] | effect on DOX cytotoxicity (MDA-MB-468 cells) | effect on DOX-induced mitochondrial depolarization (HepG2 cells [2]) | effect on DOX-induced loss of MMP (H9c2 cells) |
| --- | --- | --- | --- | --- | --- | --- |
| CC(=O)NC(C(=O)N(C)CCC[P+](c1ccccc1)(c1ccccc1)c1ccccc1)C(C)(C)SSC(=O)N(C)CCOC(C)=O (centres unmarked) [APT-1-TPP] | synergistically enhanced its activity | potentiated DOX cytotoxicity in a dose-dependent manner | ≥ 100 | no protective effect | further exacerbated MMP loss | conferred protection, though to a slightly lesser extent |
| COC(=O)C(NC(C)=O)C(C)(C)SSC(=O)N(C)CCOC(C)=O (centres unmarked) [APT-1] | did not blunt DOX cytotoxicity | no protective effect |  | did not provide cytoprotection | neither donor prevented DOX-induced mitochondrial depolarization | preserved MMP |
